# According to patent US12109184B2, “Personalized methods of treating cancer” (CANCER RESEARCH TECHNOLOGY LIMITED, priority 2020, dated 2024):
# Entries after “also recorded” stand apart in the source; their conditions may differ.
# Tests used:
# [1] = test system: HCT116, SW480, MDA-MB-231, and MIAPaCa-2 cells; details: exogenous GSH 5 mM
# Description: HCT116, SW480, MDA-MB-468, MDA-MB-231, AsPC-1, BxPC-3, CFPAC-1, MIAPaCa-2, PANC-1, Panc10.05, SW1990, U-251, LN-18, LN-229, T98G, U-343, A-172 cells were used. Cell lines were authenticated using Short Tandem Repeat (STR) profiling and tested for mycoplasma. Colorectal and breast cancer cell lines were grown in Dulbecco's Modified Eagle Medium (DMEM), pancreatic ductal adenocarcinoma (PDAC) cell lines were grown in Roswell Park Memorial institute (RPMI) 1640. All cell lines were supplemented with penicillin-streptomycin, amphotericin, 2 mM L-glutamine, and 10% fetal bovine serum (FBS). Cells were kept at 37° C. in 5% CO2 in a humidified cell culture incubator. A formulated medium lacking cysteine, cystine, methionine, and serine was used as a base for creating experimental media. The base medium formulation contained 0.2 mM L-histidine, 0.4 mM L-isoleucine, 0.4 mM L-leucine, 0.4 mM L-lysine, 0.2 mM L-phenylalanine, 0.4 mM L-threonine, 0.08 mM L-tryptophan, 0.4 mM L-valine, 0.2 mM L-arginine, 2 mM L-glutamine, 0.2 mM L-tyrosine, 0.4 mM L-alanine, 0.3 mM L-proline, 0.15 mM L-glutamic acid, 0.1 mM L-aspartic acid, 0.2 mM L-asparagine, and 0.4 mM glycine. […]
# Cells were seeded at 6×10^4 cells per well into 24-well plates (triplicate wells per condition) in the relevant complete medium and adhered for a full 24-hour period. […] DAPI-stained cell nuclei were detected via microscopy. […]
# [2] = test system: MDA-MB-231 cells; experiment: Steady state metabolite measurements by LC-MS; assay type: cell-based
# Description: Metabolomics experiments were performed as follows. Cells were seeded into 6-well plates (5×10^5-1.5×10^6 cells/mL, depending on time-course, triplicate wells per condition) in complete medium and adhered overnight. Cells were washed with PBS, and the relevant experimental media were added for the stated times. Duplicate wells were used for cell counting. Cell counts were used to normalize the volume of lysis solvent prior to metabolite extractions (2×10^6 cells/mL). Cells were washed quickly in PBS, then ice-cold lysis solvent (methanol 50%, acetonitrile 30%, water 20%) was added, and cells were scraped on ice. Lysates were transferred to 1.5 mL tubes on ice, vortexed, then spun by centrifugation at 15,000 rpm at 4° C. for 10 minutes. Supernatants were collected and stored at -80° C. for LC-MS analysis. Prepared samples were analyzed on an LC-MS platform consisting of an […] system and an ExactiveTM mass spectrometer. A Sequant® ZIC®-HILIC column (4.6 mm×150 mm, 3.5 μm) was used to separate the metabolites with the mobile phase using A=0.1% (v/v) formic acid in water and B=0.1% (v/v) formic acid in acetonitrile. A gradient program starting at 20% of A and linearly increasing to 80% at 30 min was used followed by washing (92% of A for 5 mins) and re-equilibration (20% of A for 10 min) steps. The total run time of the method was 45 min. The LC stream was desolvated and ionized in the HESI probe. The ExactiveTM mass spectrometer was operated in full scan mode over a mass range of 70-1,200 m/z at a resolution of 50,000 with polarity switching. The LC-MS raw data was converted into mzML files by using ProteoWizard and imported to MZMine 2.10 for peak extraction and sample alignment. An in-house database including all possible ^13C and ^15N isotopic m/z values of the relevant metabolites was used for the assignment of LCMS signals. Finally the peak areas were used for comparative quantification.
# [3] = test system: breast, colorectal and pancreatic cancer cell lines; experiment: Cell counting in complete or cysteine-free medium, cell lines not given; assay type: cell-based; details: supplementation during cysteine starvation
# Description: The base medium formulation contained 0.2 mM L-histidine, 0.4 mM L-isoleucine, 0.4 mM L-leucine, 0.4 mM L-lysine, 0.2 mM L-phenylalanine, 0.4 mM L-threonine, 0.08 mM L-tryptophan, 0.4 mM L-valine, 0.2 mM L-arginine, 2 mM L-glutamine, 0.2 mM L-tyrosine, 0.4 mM L-alanine, 0.3 mM L-proline, 0.15 mM L-glutamic acid, 0.1 mM L-aspartic acid, 0.2 mM L-asparagine, and 0.4 mM glycine.
# DAPI-stained cell nuclei were detected via microscopy.
# AMD1 inhibitor sardomozide/SAM486A, GPX4 inhibitor RSL3, and CSE inhibitor beta-cyano-L-alanine were used.
# For experiments using spermine oxidase (SMOX) and polyamine oxidase (PAOX) inhibitors or MTOB, cells were pre-treated with stated concentrations for 16 hours in complete medium. After pre-treatment, cells were washed in PBS, and treatment was continued in complete or cysteine-free medium for stated times. After treatment was finished, cells were fixed and stained as described above. For experiments using MTA, polyamines, GPX4 and CSE inhibitors, treatment started at the same time as cysteine starvation. For experiments involving hypoxic conditions, cells were seeded in normoxic conditions and allowed to adhere for 24 hours before control and cysteine starvation medium was added and cells were immediately transferred either to a humidified cell culture incubator set to 37° C. in 20% O2 (normoxia), or a hypoxia chamber set to 37° C. in 1% O2 (hypoxia) for the stated times. Cells were fixed immediately and stained as described above.
# [4] = test system: SW480 and MDA-MB-231 cells; experiment: Cell counting, rescue by cysteine precursors during cysteine starvation; assay type: cell-based
# Description: HCT116, SW480, MDA-MB-468, MDA-MB-231, AsPC-1, BxPC-3, CFPAC-1, MIAPaCa-2, PANC-1, Panc10.05, SW1990, U-251, LN-18, LN-229, T98G, U-343, A-172 cells were used. Cell lines were authenticated using Short Tandem Repeat (STR) profiling and tested for mycoplasma. Colorectal and breast cancer cell lines were grown in Dulbecco's Modified Eagle Medium (DMEM), pancreatic ductal adenocarcinoma (PDAC) cell lines were grown in Roswell Park Memorial institute (RPMI) 1640. All cell lines were supplemented with penicillin-streptomycin, amphotericin, 2 mM L-glutamine, and 10% fetal bovine serum (FBS). Cells were kept at 37° C. in 5% CO2 in a humidified cell culture incubator. A formulated medium lacking cysteine, cystine, methionine, and serine was used as a base for creating experimental media. The base medium formulation contained 0.2 mM L-histidine, 0.4 mM L-isoleucine, 0.4 mM L-leucine, 0.4 mM L-lysine, 0.2 mM L-phenylalanine, 0.4 mM L-threonine, 0.08 mM L-tryptophan, 0.4 mM L-valine, 0.2 mM L-arginine, 2 mM L-glutamine, 0.2 mM L-tyrosine, 0.4 mM L-alanine, 0.3 mM L-proline, 0.15 mM L-glutamic acid, 0.1 mM L-aspartic acid, 0.2 mM L-asparagine, and 0.4 mM glycine. The base medium was supplemented with 10% dialyzed FBS, penicillin-streptomycin, and amphotericin. To ensure an adequate supply of vitamin B6 (a crucial co-factor for de novo cysteine synthesis), base medium was supplemented with additional 20 μM vitamin B6. The control experimental medium was the base medium supplemented with 0.4 mM L-cysteine, 0.2 mM L-methionine, and 0.4 mM L-serine. The cysteine starvation (−Cys) experimental medium was base medium supplemented with 0.2 mM L-methionine and 0.4 mM L-serine.
# Cells were seeded at 6×10^4 cells per well into 24-well plates (triplicate wells per condition) in the relevant complete medium and adhered for a full 24-hour period. A ‘time-0’ plate was included to record the starting cell number to calculate relative cell numbers. Cells were washed once with phosphate-buffered saline (PBS) before receiving experimental medium containing or lacking the specified amino acids, metabolites, or drugs. At the stated time-points the medium was removed, cells were fixed in a 4% formalin-PBS solution. Cells were then washed and stored in PBS before staining with 4′,6-diamidino-2-phenylindole (DAPI)-Triton™ X100-PBS solution for 1 hour, followed by storage in PBS at 4° C. until further analysis. DAPI-stained cell nuclei were detected via microscopy.
# Homocysteine, cystathionine, glutathione, putrescine, spermine, spermidine, GPX4 inhibitor ML210, SMOX inhibitor MDL 72527, PAOX inhibitor diminazene aceturate, ferrostatin-1 and erastin were used. AMD1 inhibitor sardomozide/SAM486A, GPX4 inhibitor RSL3, and CSE inhibitor beta-cyano-L-alanine were used. […]
# [5] = test system: HCT116, SW480, MDA-MB-231 and MDA-MB-468 cells; experiment: Western blot of transsulfuration pathway enzyme expression; assay type: cell-based; details: medium lacking cysteine with 0.8 mM homocysteine, 24 hr
# Source text: Protein was extracted from whole cells by lysis in RIPA buffer supplemented with a protease and […] cocktail. Lysates were cleared using centrifugation, resolved on 4-12% bis-tris pre-cast gels, and transferred to nitrocellulose membranes. Primary antibodies used were MTAP, AMD1, ODC1, GPX4, AHCY, CBS, CSE, and actin as a loading control on the same blots. Secondary antibodies used were IRDye800CW anti-mouse, IRDye680RD anti-mouse, IRDye800CW anti-rabbit, and IRDye680RD anti-rabbit. Protein bands were detected and quantified using an infrared scanner and imaging software.
# [6] = medium lacking cysteine with 5 mM glutathione
# [7] = medium lacking cysteine, supplement 0.2 mM
Compound,cell death and proliferation during cysteine starvation [1],"intracellular GSH levels [2, 6]","intracellular cysteine and γ-glutamylcysteine levels [2, 6]",rescue from cysteine starvation-induced cell death (summary in discussion) [3],rescue of survival/proliferation during cysteine starvation ([4]; supplement at 0.2 mM),restoration of proliferation during cysteine starvation ([4]; supplement at 0.8 mM),"intracellular cysteine levels [2, 7]","intracellular homocysteine and cystathionine levels [2, 7]","intracellular γ-glutamylcysteine and GSH levels [2, 7]","intracellular cysteine levels ([2]; medium lacking cysteine, supplement 0.8 mM, 8 h)",transsulfuration pathway enzyme expression beyond starvation alone [5]
"N[C@@H](CCC(=O)N[C@@H](CS)C(=O)NCC(=O)O)C(=O)O [GSH, glutathione]",prevented cell death and restored proliferation,fully restored,partial rescue,,,,,,,,
N[C@@H](CCS)C(=O)O [homocysteine],,,,rescued from starvation-induced cell death; also recorded: able to rescue cells from cysteine starvation,substantial rescue,further able to restore proliferation; also recorded: restored proliferation and increased cell survival,moderate increases,significantly increased,more marked increases,significant increase,little impact
